Data on 41 molecules can be found in patent US20170121344A1 (Siga Technologies, Inc., priority 2009, published 2017).

One assay deals with Dengue-2 (Strain New Guinea C). Nature of the assay: Viral yield assay against Dengue-2 in Vero cells. It counts as cell-based, Dengue virus. The conditions noted are these: Dengue virus, DENV2, Vero, 48 h, read-out: Activity (EC50 in μM) DENV-2. Summed up: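 Infect Vero cells with virus (MOI 0.1), add compound or DMSO, incubate at 37° C, collect progeny at 48 hours post infection, then titrate on Vero cells to obtain EC50.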
As for `Cc1ccc2c(N)c(C(=O)Nc3ccccc3C(F)(F)F)sc2n1` [Compound 418, 3-amino-6-methyl-N-[2-(trifluoromethyl)phenyl]thieno[2,3-b] pyridine-2-carboxamide], the EC50 lay in the range of 5 to 25 µM.

Take `Cc1cccc(NC(=O)c2sc3nc(-c4cccs4)ccc3c2N)c1` [Compound 419, 3-amino-N-(m-tolyl)-6-(2-thienyl) thieno[2,3-b]pyridine-2-carboxamide]: the EC50 was less than 5 µM. On the same count and under the same terms, the value for `COc1ccc(NC(=O)c2sc3nc(-c4cccs4)ccc3c2N)c(OC)c1` [Compound 432, 3-amino-N-(2,4-dimethoxyphenyl)-6-(2-thienyl)thieno[2,3-b]pyridine-2-carboxamide] was 5 to 25 µM. Still for that read-out and setting: the value for `Nc1c(C(=O)Nc2nc3ccccc3s2)sc2nc(-c3cccs3)ccc12` [Compound 436, 3-amino-N-(1,3-benzothiaozl-2-yl)-6-(2-thienyl)thieno[2,3-b]pyridine-2-carboxamide] was less than 5 µM. With `COc1ccc(NC(=O)c2sc3nc(-c4cccs4)ccc3c2N)cc1OC` [Compound 444, 3-amino-N-(3,4-dimethoxyphenyl)-6-(2-thienyl)thieno[2,3-b]pyridine-2-carboxamide], the EC50 was less than 5 µM. Same read-out and setting: the value for `Cc1ccccc1NC(=O)c1sc2nc(-c3cccs3)ccc2c1N` [Compound 477, 3-amino-N-(o-tolyl)-6-(2-thienyl)thieno [2,3-b]pyridine-2-carboxamide] was less than 5 µM.

The assay is the same for the next values; noted with them: Dengue virus, DENV2; viral yield assay, Vero cells, MOI 0.1, 48 hours post infection; read-out: Activity (EC50 in μM) DENV-2.
`Cc1cc(C)c2c(C)c(C(=O)Nc3ccc4c(c3)OCCO4)sc2n1` [Compound 396, N-(2,3-dihydro-1,4-benzodioxin-6-yl)-3,4,6-trimethyl-thieno[2,3-b]pyridine-2-carboxamide]: the EC50 is 5 to 25 µM. The same measure, in the same setting: the value for `Cc1c(C(=O)Nc2ccc(F)cc2)sc2ncc(C(=O)Nc3ccc(F)cc3)cc12` [Compound 397, N2,N5-bis(4-fluorophenyl)-3-methyl-thieno[2,3-b]pyridine-2,5-dicarboxamide] was less than 5 µM; that for `Cc1cc(C)c2c(C)c(C(=O)N3c4ccccc4CC3C)sc2n1` (centres unmarked) [Compound 398, (2-methylindolin-1-yl)-(3,4,6-trimethyl-thieno[2,3-b]pyridin-2-yl)methanone] was 5 to 25 µM; that for `Cc1c(C(=O)N(C)C2CCCC(C)C2)sc2nc(C(F)(F)F)ccc12` (centres unmarked) [Compound 399, N,3-dimethyl-N-(3-methylcyclohexyl)-6-(trifluoromethyl)thieno[2,3-b]pyridine-2-carboxamide] was less than 5 µM. Still for that read-out and setting: as for `CC(=O)c1cnc2sc(C(=O)NCc3ccc(CN(C)C)cc3)c(C)c2c1` [Compound 400], the figure is less than 5 µM; as for `COc1cc(NC(=O)c2sc3nc(C)cc(C)c3c2C)cc(OC)c1OC` [Compound 401, 3,4,6-trimethyl-N-(3,4,5-trimethoxyphenyl)thieno[2,3-b]pyridine-2-carboxamide], greater than 25 µM; as for `CCNC(=O)c1cccc(NC(=O)c2sc3nc(C)cc(C)c3c2C)c1` [Compound 402, N-[3-(ethylcarbamoyl)phenyl]-3,4,6-trimethyl-thieno[2,3-b]pyridine-2-carboxamide], greater than 25 µM.

For the molecule `Cc1cc(C)c2c(C)c(C(=O)Nc3ccccc3O)sc2n1` [Compound 403, N-(2-hydroxyphenyl)-3,4,6-trimethyl-thieno[2,3-b]pyridine-2-carboxamide], the EC50 was less than 5 µM.

In the case of `Cc1cc(C)c2c(C)c(C(=O)N3CCN(c4cnccn4)CC3)sc2n1` [Compound 404], the EC50 was less than 5 µM. On to `Cc1cc(C)c2c(C)c(C(=O)NCCC(=O)N3CCCC3)sc2n1` [Compound 405, 3,4,6-trimethyl-N-(3-oxo-3-pyrrolidin-1-yl-propyl)thieno[2,3-b]pyridine-2-carboxamide], for which the EC50 was less than 5 µM. On the same count and under the same terms, the value for `CCN(C(=O)c1sc2nc(C)cc(C(F)(F)F)c2c1C)c1ccccc1` [Compound 406] was less than 5 µM; that for `COc1ccc(OC)c(CN2CCN(C(=O)c3sc4nc(C)cc(C)c4c3C)CC2)c1` [Compound 407, [4-[(2,5-dimethoxyphenyl)methyl)piperazin-1-yl]-(3,4,6-trimethylthieno [2,3-b]pyridin-2-yl)methanone] was greater than 25 µM; that for `Cc1cc(C)c2c(C)c(C(=O)N3CCc4ccccc4C3)sc2n1` [Compound 408, 3,4-dihydro-1H-isoquinolin-2-yl-(3,4,6-trimethylthieno[2,3-b]pyridin-2-yl) methanone] was greater than 25 µM.

For the molecule `COc1ccccc1C(C)N(C)C(=O)c1sc2nc(C)cc(C)c2c1C` (centres unmarked) [Compound 409, N-[1-(2-methoxyphenyl)ethyl]-N,3,4,6-tetramethyl-thieno[2,3-b]pyridine-2-carboxamide], the EC50 was greater than 25 µM. The same measure, in the same setting: as for `Cc1ccc(NC(=S)NNC(=O)c2sc3nc(-c4cccs4)cc(C(F)(F)F)c3c2C)cc1` [Compound 410, 1-[[3-methyl-6-(2-thienyl)-4-(trifluoromethyl)thieno[2,3-b]pyridine-2-carbonyl]amino]-3-(p-tolyl)thiourea], the figure is less than 5 µM. As to `O=c1[nH]cnc2c1sc1nc(-c3cccs3)ccc12` [Compound 412, 7-(thiophen-2-yl)pyrido[3′,2′:4,5]thieno [3,2-d]pyrimidin-4(3H)-one], the EC50 was 5 to 25 µM. For the molecule `Nc1c(C(=O)Nc2ccc(Br)cc2)sc2nc(-c3ccncc3)ccc12` [Compound 416, 3-amino-N-(4-bromophenyl)-6-(4-pyridyl)thieno[2,3-b]pyridine-2-carboxamide], the concentration for a half-maximal effect (EC50) was less than 5 µM.

Regarding `Nc1c(C(=O)Nc2cccc(C(F)(F)F)c2)sc2ncccc12` [Compound 420, 3-amino-N-[3-(trifluoromethyl)phenyl] thieno[2,3-b]pyridine-2-carboxamide], the EC50 was less than 5 µM. On to `Nc1c(C(=O)Nc2cccc(Br)c2)sc2ncccc12` [Compound 421, 3-amino-N-(3-bromophenyl)thieno[2,3-b] pyridine-2-carboxamide], for which the EC50 was in the range of 5 to 25 µM.

On to `Nc1c(C(=O)Nc2ccccc2Br)sc2ncccc12` [Compound 422, 3-amino-N-(2-bromophenyl)thieno[2,3-b] pyridine-2-carboxamide], for which the EC50 was less than 5 µM. Still for that read-out and setting: as for `Nc1c(C(=O)Nc2ccc(Br)cc2)sc2ncccc12` [Compound 423, 3-amino-N-(4-bromophenyl)thieno[2,3-b] pyridine-2-carboxamide], the figure is less than 5 µM; as for `Nc1c(C(=O)Nc2ccccc2C(F)(F)F)sc2ncccc12` [Compound 424, 3-amino-N-[2-(trifluoromethyl)phenyl] thieno[2,3-b]pyridine-2-carboxamide], 5 to 25 µM; as for `Nc1c(C(=O)Nc2ccc(Br)cc2)sc2nc(-c3cccnc3)ccc12` [Compound 435, 3-amino-N-(4-bromophenyl)-6-(3-pyridyl)thieno[2,3-b]pyridine-2-carboxamide], less than 5 µM. On the same count and under the same terms, as for `Nc1c(C(=O)Nc2cccc(C(F)(F)F)c2)sc2nc(-c3ccncc3)ccc12` [Compound 440, 3-amino-6-(4-pyridyl)-N-[3-(trifluoromethyl)phenyl]thieno[2,3-b] pyridine-2-carboxamide], the figure is 5 to 25 µM. The same measure, in the same setting: as for `COc1ccc(C(F)(F)F)cc1NC(=O)c1sc2nc(-c3cccs3)ccc2c1N` [Compound 442, 3-amino-N-[2-methoxy-5-(trifluoromethyl)phenyl]-6-(2-thienyl) thieno[2,3-b]pyridine-2-carboxamide], the figure is less than 5 µM; as for `Nc1c(C(=O)Nc2ccc(Cl)c(C(F)(F)F)c2)sc2nc(-c3cccs3)ccc12` [Compound 443, 3-amino-N-[4-chloro-3-(trifluoromethyl)phenyl]-6-(2-thienyl) thieno[2,3-b]pyridine-2-carboxamide], less than 5 µM. For the molecule `COc1ccc(-c2ccc3c(N)c(C(=O)Nc4ccc(Br)cc4)sc3n2)cc1OC` [Compound 451, 3-amino-N-(4-bromophenyl)-6-(3,4-dimethoxyphenyl)thieno[2,3-b]pyridine-2-carboxamide], the EC50 was less than 5 µM. Still for that read-out and setting: as for `Nc1c(C(=O)Nc2cccc(C(F)(F)F)c2)sc2nc(-c3ccc(F)cc3)ccc12` [Compound 456, 3-amino-6-(4-fluorophenyl)-N-[3-(trifluoromethyl)phenyl]thieno[2,3-b] pyridine-2-carboxamide], the figure is less than 5 µM; as for `Cc1ccc2c(N)c(C(=O)Nc3ccc(OC(F)(F)F)cc3)sc2n1` [Compound 457, 3-amino-6-methyl-N-[4-(trifluoromethoxy)phenyl]thieno[2,3-b] pyridine-2-carboxamide], 5 to 25 µM.

As for `COc1ccc(Cl)cc1NC(=O)c1sc2nc(-c3cccs3)ccc2c1N` [Compound 460, 3-amino-N-(5-chloro-2-methoxy-phenyl)-6-(2-thienyl)thieno[2,3-b]pyridine-2-carboxamide], the EC50 was less than 5 µM. Still for that read-out and setting: as for `Cc1ccc(F)cc1NC(=O)c1sc2nc(-c3cccs3)ccc2c1N` [Compound 463, 3-amino-N-(5-fluoro-2-methyl-phenyl)-6-(2-thienyl)thieno [2,3-b]pyridine-2-carboxamide], the figure is less than 5 µM. On to `Nc1c(C(=O)Nc2ccccc2Br)sc2nc(-c3ccncc3)ccc12` [Compound 466, 3-amino-N-(2-bromophenyl)-6-(4-pyridyl)thieno[2,3-b]pyridine-2-carboxamide], for which the EC50 was 5 to 25 µM. On to `Nc1c(C(=O)Nc2ccc(Br)cc2)sc2nc(-c3ccc4c(c3)OCO4)ccc12` [Compound 474, 3-amino-6-(1,3-benzodioxol-5-yl)-N-(4-bromophenyl)thieno[2,3-b]pyridine-2-carboxamide], for which the EC50 was less than 5 µM. With `Cc1ccc2c(n1)sc1c(=O)n(-c3cccc(Br)c3)nnc12` [Compound 479, 3-(3-bromophenyl)-7-methylpyrido[3′,2′:4,5]thieno[3,2-d] [1,2,3]triazin-4(3H)-one], the EC50 is less than 5 µM. Regarding `Nc1c(C(=O)Nc2ccccc2C(F)(F)F)sc2nc(-c3ccncc3)ccc12` [Compound 480, 3-amino-6-(4-pyridyl)-N-[2-(trifluoromethyl)phenyl]thieno[2,3-b] pyridine-2-carboxamide], the EC50 is less than 5 µM.
